Source: patent publication EP3981864A1, “DETERGENT COMPOSITION” (priority 2020, dated 2022)

Key:
Experiment in all cases: Alpha-dioxygenase activity assay (oxygen consumption, TON)
Format in all cases: biochemical
Conditions in all cases: fatty acid 100 µM, enzyme 6 ppm, 50 mM HEPES pH 9.0, 37°C; initial rate of oxygen consumption / enzyme concentration
[1] = system: Citrus sinensis αDOX (SEQ ID NO: 11), fatty acid alpha-dioxygenase, A0A067FHE4, N-terminal His-tag variant SEQ ID NO: 269 (comparative)
From the text: (§1) Citrus sinensis αDOX (SEQ ID NO: 11) is a fatty acid alpha-dioxygenase that converts fatty acids into the corresponding 2-hydroperoxy fatty acids and is included as a comparative example of the present invention. A codon optimized gene (SEQ ID NO: 268) encoding for an alpha-dioxygenase variant (SEQ ID NO: 269), including an N-terminal amino acid sequence containing a His-tag was designed and synthesized by Genscript. After gene synthesis, the protein was expressed and purified. In brief, the complete synthetic gene sequence was subcloned into a pET30a vector using the NdeI/HindIII cloning sites. For heterologous expression, Escherichia coli BL21 (DE3) cells were transformed with the recombinant plasmid and a single colony was inoculated into LB medium containing kanamycin (50 mg/L). A pre-starter culture was then inoculated into flasks containing Magic Media (Thermo Fisher, Catalog # K6803) supplemented with kanamycin (50 mg/L) and incubated at 16 °C for 72 h. At an OD600nm = 0.5 - 1.0, 5-aminolevulinic acid (final concentration 0.5 mM) was added. Cells were harvested by centrifugation at 5000 rpm and 4°C and the pellet was lysed using a bacterial cell lysis buffer (B-PER - Themo Fisher, Waltham, MA). After centrifugation, the supernatant was collected, and the protein was purified by one-step purification using HisPur™ Ni-NTA Spin Columns (Thermo Scientific, Catalog # 88226) and standard protocols known in the art. The protein was concentrated using a 10 kDa MW cutoff Amicon Ultra centrifugal filter unit (Millipore Sigma, Catalog# UFC901024), followed by desalting using a disposable PD-10 desalting column (GE Healthcare Life Sciences, Catalog# 17085101) and a buffer containing 50 mM Tris-HCl, 500 mM NaCl, and 10% Glycerol at pH 8.0. […]
(§2) Reactions with alpha-dioxygenases were performed as follows. […] The reaction was incubated for up to 10 minutes at 37°C with 200 rpm agitation and the conversion was monitored using an oxygen sensor. The TON (in s-1) were calculated as the ratio between the initial rate of oxygen consumption (in µM/s) and the concentration of enzyme (in µM). […]

[2] = system: Gossypium raimondii αDOX (SEQ ID NO: 5), fatty acid alpha-dioxygenase, A0A0D2W0W0, N-terminal His-tag variant SEQ ID NO: 257
From the text: as §1, with “Gossypium raimondii” for “Citrus sinensis”, “5)” for “11)”, “an” for “a comparative”, “256)” for “268)”, “257),” for “269),”
as §2

[3] = system: Pseudomonas alcaligenes αDOX (SEQ ID NO: 12), fatty acid alpha-dioxygenase, U3BA19, N-terminal His-tag variant SEQ ID NO: 271 (comparative)
From the text: as §1, with “Pseudomonas alcaligenes” for “Citrus sinensis”, “12)” for “11)”, “270)” for “268)”, “271),” for “269),”
as §2

## CCCCCCCC/C=C\CCCCCCCC(=O)O [Oleic Acid]
[1]
  Oleic Acid, TON: 0.00 s⁻¹
[2]
  Oleic Acid, TON: 1.68 s⁻¹
[3]
  Oleic Acid, TON: 0.00 s⁻¹

## CCCCCCCCCCCCCCCC(=O)O [Palmitic Acid]
[1]
  Palmitic Acid, TON: 0.29 s⁻¹
[2]
  Palmitic Acid, TON: 2.56 s⁻¹
[3]
  Palmitic Acid, TON: 0.36 s⁻¹

## CCCCCCCCCCCCCCCCCC(=O)O [Stearic Acid]
[1]
  Stearic Acid, TON: 0.00 s⁻¹
[2]
  Stearic Acid, TON: 1.68 s⁻¹
[3]
  Stearic Acid, TON: 0.21 s⁻¹
